Results on one substance are retold here after US10815229B1, “Benzenesulfonamide compounds and their use as therapeutic agents” (Xenon Pharmaceuticals Inc., priority 2016, dated 2020).

One test addresses NaV1.1 (Homo sapiens (Human), UniProt P35498). The test can be described thus: Sodium Influx Assay (Flux), NaV1.1. Type of test: cell-based. As to conditions: Trex HEK293 cells, ANG2 dye; arithmetic mean.
The target of a further test is NaV1.6 (Homo sapiens (Human), UniProt Q9UQD0). The experiment in a line: Sodium Influx Assay (Flux), NaV1.6. Particulars: read-out: Flux NaV1.6 IC50; Trex HEK293 cells, ANG2 dye; arithmetic mean.

pIC50: −log10 of the molar value.

The term pIC50 denotes the IC50 on a negative log10 scale, so that one unit is a factor of ten.

Consider “(S)-2-fluoro-4-((1-(2-hydroxybenzyl)-pyrrolidin-3-yl)(methyDamino)-5-methyl-N-(thiazol-4-yl)benzenesulfonamide [Example 113]”, for which the pIC50 against NaV1.1 was 4.75; on NaV1.6, 6.59.
